{
  "source": "patent US5426111A",
  "about": "“[Alkoxy-, alkenyloxy-, alkynyloxy-, and phenylmethyloxyalkoxycycloalkyl or alkoxycycloheteroalkyl]naphtho[2,3-c]furan-1(3H)-one inhibitors of 5-lipoxygenase” (Abbott Laboratories, priority 1994, dated 1995)",
  "system": "LTB4 biosynthesis",
  "experiment": "Calcium ionophore-induced LTB4 biosynthesis in human whole blood",
  "type": "cell-based",
  "details": "@ 100 nm; human heparinized whole blood, calcium ionophore A23187 challenge, LTB4 by radioimmunoassay",
  "experimental": "Inhibition of leukotriene biosynthesis was evaluated in an assay, involving calcium ionophore-induced LTB4 biosynthesis expressed human whole blood. Human heparinized whole blood was preincubated with test compounds or vehicle for 15 min at 37° C. followed by calcium ionophore A23 187 challenge (final concentration of 8.3 μM) and the reaction terminated after 30 min by adding two volumes of methanol containing prostaglandin B2 as an internal recovery standard. The methanol extract was analyzed for LTB4 using a commercially available radioimmunoassay.",
  "data": [
    {"smiles": "COC1(/C=C/COc2ccc3c(-c4ccc(F)cc4)c4c(cc3c2)C(=O)OC4)CCOCC1", "note": "[Example 1, 4-(4-fluorophenyl)-7-[3-(4-methoxytetrahydro-2H-pyran-4-yl)-2-propenyloxy]naptho[2,3-c]furan-1(3H)-one]", "values": [
      {"measurement": "inhibition of leukotriene biosynthesis", "result": 55, "unit": "%"}
    ]}
  ]
}
